Test results reported in patent publication EP4122499A1, “FIBROBLAST ACTIVATION PROTEIN INHIBITORS AND USE THEREOF” (3B Pharmaceuticals GmbH, priority 2021, dated 2023).

Assays:
[1] = Plasma stability assay, mouse plasma; type: in vitro ADME; conditions: 37°C
Protocol: (§1) In order to determine the stability of selected compounds of the invention in human and mouse plasma, a plasma stability assay was carried out. Such plasma stability assay measures degradation of compounds of the present invention in blood plasma. This is an important characteristic of a compound as compounds, with the exception of pro-drugs, which rapidly degrade in plasma, generally show poor in vivo efficacy. […] The stability is sufficient for the diagnostic, therapeutic and theragnostic use of these compounds according to the present invention.
(§2) The plasma stability samples were prepared by spiking 50 µl plasma aliquots (all sodium citrate 3.8%) with 1 µl of a 0.5 mM compound stock solution in DMSO. After vortexing, the samples were incubated in a Thermomixer at 37°C for 4 or 6 hours. After incubation the samples were stored on ice until further treatment. All samples were prepared in duplicates.
A suitable internal standard was added to each sample (1 µl of a 0.5 mM stock solution in DMSO). Protein precipitation was performed using two different methods depending on the compound conditions as indicated in Table 8. • A) 250 µl of acetonitrile containing 1% trifluoroacetic acid was added. […] After incubation at room temperature for 30 min the precipitate was separated by centrifugation. To 100 µl of the supernatant 10 µl of 1% formic acid was added followed by further incubation at 60°C for 10 min to complete the formation of the zinc chelate, if the compound contains a free DOTA moiety.
The determination of the analyte in the clean sample solutions was performed on an Agilent 1290 UHPLC system coupled to an Agilent 6530 Q-TOF mass spectrometer. The chromatographic separation was carried out on a Phenomenex BioZen XB-C18 HPLC column (50 x 2 mm, 1.7 µm particle size) with gradient elution using a mixture of 0.1% formic acid in water as eluent A and acetonitrile as eluent B (2% B to 41% in 7 min, 800 µl/min, 40°C). Mass spectrometric detection was performed in positive ion ESI mode by scanning the mass range from m/z 50 to 3000 with a sampling rate of 2 / sec.
From the mass spectrometric raw data the ion currents for the double or triple charged monoisotopic signal was extracted for both, the compound and the internal standard.
(§3) Quantitation was performed by external matrix calibration with internal standard using the integrated analyte signals.
The result is stated as "% intact compound remaining after 4 h or 6 h" and means that from the amount of material at the start of the experiment the stated percentage is detected as unchanged material at the end of the experiment by LC-MS quantification. Since all compounds are more than 50% intact after at least 4 h they are considered as stable enough for diagnostic and therapeutic applications. Table 8: Results of the plasma stability assay

HEK-FAP cells = target: T1, HEK-FAP cells (Homo sapiens, UniProt Q12884); assay: LigandTracer assay with 111In-labeled compounds; type: binding; conditions: 111In-labeled compound; for kon: association rate, read-out: ka
T1 construct: expressed in transfected cells; host or cells: HEK293
T1 sequence (Q12884 1-760): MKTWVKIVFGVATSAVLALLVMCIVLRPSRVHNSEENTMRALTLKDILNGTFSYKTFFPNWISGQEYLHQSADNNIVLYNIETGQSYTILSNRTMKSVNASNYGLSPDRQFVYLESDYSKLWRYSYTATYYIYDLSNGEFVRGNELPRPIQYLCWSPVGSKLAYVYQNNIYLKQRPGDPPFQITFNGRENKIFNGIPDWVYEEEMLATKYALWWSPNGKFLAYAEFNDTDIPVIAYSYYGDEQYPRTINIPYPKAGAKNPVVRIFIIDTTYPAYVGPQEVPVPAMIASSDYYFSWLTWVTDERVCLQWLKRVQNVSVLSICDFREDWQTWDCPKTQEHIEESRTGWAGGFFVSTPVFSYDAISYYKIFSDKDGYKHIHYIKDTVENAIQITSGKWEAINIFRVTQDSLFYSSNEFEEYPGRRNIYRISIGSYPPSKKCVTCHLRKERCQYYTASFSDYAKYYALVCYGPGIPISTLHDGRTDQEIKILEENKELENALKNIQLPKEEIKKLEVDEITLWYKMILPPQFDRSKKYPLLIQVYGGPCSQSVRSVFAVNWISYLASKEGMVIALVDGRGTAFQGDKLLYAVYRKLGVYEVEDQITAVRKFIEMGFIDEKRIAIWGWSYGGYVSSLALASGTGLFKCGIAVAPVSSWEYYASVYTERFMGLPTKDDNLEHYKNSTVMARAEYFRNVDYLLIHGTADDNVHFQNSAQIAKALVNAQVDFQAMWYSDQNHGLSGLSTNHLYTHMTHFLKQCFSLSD
Protocol: HEK293 cells (human embryonic kidney cells) were engineered to express the human FAP. […] Cell concentrations were adjusted to 3 x 10^5 mL^-1, and 3.000 µL of the suspension was dispensed into a poly-lysine-coated, clear cell dish (10cm). Approximately 24 hours after re-seeding, the medium was replaced by assay medium (Ham's medium with 20 mM HEPES) containing 1 % FCS. The dish was placed in the LigandTracer® device and a baseline measurement was obtained using the LigandTracer® Control software (version 2.4). […] To determine the dissociation rate (kd) the cells were washed and subsequently incubated with fresh assay medium for several hours. […] Table 14 Results of the LigandTracer® assay

[2] = Plasma stability assay, human plasma; type: in vitro ADME; conditions: 37°C, 6 h
Protocol: as §1, §2
A suitable internal standard was added to each sample (1 µl of a 0.5 mM stock solution in DMSO). […]
as §3
The result is stated as "% intact compound remaining after 4 h or 6 h" and means that from the amount of material at the start of the experiment the stated percentage is detected as unchanged material at the end of the experiment by LC-MS quantification. […]

With `O=C(O)CN1CCN(CC(=O)O)CCN(CC(=O)N2CCN(CCNC(=O)c3cccc(-c4ccc5c(C(=O)NCC(=O)N6CCC[C@H]6C(=O)c6nc7ccccc7o6)ccnc5c4)c3)CC2)CCN(CC(=O)O)CC1` [Compound 3BP-4694] the “% intact compound remaining after incubation” value (“% intact compound remaining” below) ([1]; 6 h) was 90% (6 h), the “HL” value (HEK-FAP cells) was 3946 ± 1189 min and the pKD (HEK-FAP cells) was 10.3 ± 0.1. The kon (HEK-FAP cells) was 57000 M⁻¹ s⁻¹.

With `O=C(NCC(=O)N1CCC[C@H]1C(=O)c1ncco1)c1ccnc2ccccc12` [Compound 3BP-3208] the “% intact compound remaining” value ([1]; 4 h) was 92% (4 h).

In the case of `O=C(O)CN1CCN(CC(=O)O)CCN(CC(=O)NCCCS(=O)(=O)c2ccc(-c3ccc4nccc(C(=O)NCC(=O)N5CCC[C@H]5C(=O)c5nc6ccccc6o5)c4c3)cc2)CCN(CC(=O)O)CC1` [Compound 3BP-3581, (S)-2,2',2"-(10-(2-(3-(4-(4-(2-(2-(benzo[d]oxazole-2-carbonyl)pyrrolidin-1-yl)-2-oxoethylcarbamoyl)quinolin-6-yl)phenylsulfonyl)propylamino)-2-oxoethyl)-1,4,7,10-tetraazacyclododecane-1,4,7-triyl)triacetic acid], the “HL” value (HEK-FAP cells) is reported as 345 ± 218 min.

For `O=C(NCC(=O)N1CCC[C@H]1C(=O)c1nc2ccccc2o1)c1ccnc2c1=CCCC=2` [Compound 3BP-3205], the “% intact compound remaining” value ([1]; 4 h) was > 95% (4 h).

In the case of `CN(CCCN1CCN(C(=O)CN2CCN(CC(=O)O)CCN(CC(O)O)CCN(CC(=O)O)CC2)CC1)c1ccc2nccc(C(=O)NCC(=O)N3CC(F)(F)C[C@H]3C#N)c2c1` [Compound 3BP-4200, reference compound], the “HL” value (HEK-FAP cells) is reported as 1798 ± 24 min and the pKD (HEK-FAP cells) is reported as 10.4 ± 0.0.

With `O=C(O)CN1CCN(CC(=O)O)CCN(CC(=O)N2CCN(CCNC(=O)c3cccc(-c4ccc5nccc(C(=O)NCC(=O)N6CCC[C@H]6C(=O)c6nc7ccccc7o6)c5c4)c3)CC2)CCN(CC(=O)O)CC1` [Compound 3BP-4664] the “HL” value (HEK-FAP cells) was 1030 ± 1439 min, the pKD (HEK-FAP cells) was 9.3 ± 0.7 and the kon (HEK-FAP cells) was 160000 M⁻¹ s⁻¹.

In the case of `N#C[C@@H]1CC(F)(F)CN1C(=O)CNC(=O)c1ccnc2ccc(OCCCN3CCN(C(=O)CN4CCN(CC(=O)O)CCN(CC(=O)O)CCN(CC(=O)O)CC4)CC3)cc12` [Compound 3BP-2929, reference compound], the “HL” value (HEK-FAP cells) is reported as 276 ± 142 min.

With `O=C(O)CN1CCN(CC(=O)O)CCN(CC(=O)N2CCN(CCCOc3ccc4nccc(C(=O)NCC(=O)N5CCC[C@H]5C(=O)c5nc6ccccc6o5)c4c3)CC2)CCN(CC(=O)O)CC1` [Compound 3BP-4808] the “HL” value (HEK-FAP cells) was 20 ± 5 min, the pKD (HEK-FAP cells) was 8.2 ± 0.0 and the kon (HEK-FAP cells) was 94000 M⁻¹ s⁻¹.

With `O=C(O)CN1CCN(CC(=O)O)CCN(CC(=O)N2CCN(CCNC(=O)c3ccc(-c4ccc5c(C(=O)NCC(=O)N6CCC[C@H]6C(=O)c6nc7ccccc7o6)ccnc5c4)cc3)CC2)CCN(CC(=O)O)CC1` [Compound 3BP-4665] the “HL” value (HEK-FAP cells) was 22 ± 16 min, the pKD (HEK-FAP cells) was 8.8 ± 0.2 and the kon (HEK-FAP cells) was 220000 M⁻¹ s⁻¹.

With `CS(=O)(=O)c1ccc(-c2ccc3c(C(=O)NCC(=O)N4CCC[C@H]4C#N)ccnc3c2)cc1` [Compound 3BP-3128] the “% intact compound remaining” value ([1]; 4 h) was > 95% (4 h).

In the case of `CS(=O)(=O)c1cccc(-c2ccc3nccc(C(=O)NCC(=O)N4CC(F)(F)C[C@H]4C#N)c3c2)c1` [Compound 3BP-3126], the “% intact compound remaining” value ([1]; 4 h) is reported as 78% (4 h).

For `O=C(O)CN1CCN(CC(=O)O)CCN(CC(=O)N2CCN(CCCOc3ccc4nccc(C(=O)NCC(=O)N5C[C@@H](F)C[C@H]5C(=O)c5nc6ccccc6o5)c4c3)CC2)CCN(CC(=O)O)CC1` [Compound 3BP-4809], the “HL” value (HEK-FAP cells) was 18 ± 1 min and the pKD (HEK-FAP cells) was 8.2 ± 0.1.

For `O=C(O)CN1CCN(CC(=O)O)CCN(CC(=O)N2CCN(CCNC(=O)c3ccc(-c4ccc5nccc(C(=O)NCC(=O)N6CCC[C@H]6C(=O)c6nc7ccccc7o6)c5c4)cn3)CC2)CCN(CC(=O)O)CC1` [Compound 3BP-4811], the “HL” value (HEK-FAP cells) was 27 ± 12 min and the pKD (HEK-FAP cells) was 8.3 ± 0.2.

For `CS(=O)(=O)c1cccc(-c2ccc3c(C(=O)NCC(=O)N4CC(F)(F)C[C@H]4C#N)ccnc3c2)c1` [Compound 3BP-3127], the “% intact compound remaining” value ([1]; 4 h) was > 95% (4 h).

For `O=C(O)CN1CCN(CC(=O)O)CCN(CC(=O)N2CCN(CCNC(=O)c3ccc(-c4ccc5nccc(C(=O)NCC(=O)N6CCC[C@H]6C(=O)c6nc7ccccc7o6)c5c4)cc3)CC2)CCN(CC(=O)O)CC1` [Compound 3BP-4663], the “% intact compound remaining” value [2] was 89% (6 h), the “% intact compound remaining” value ([1]; 6 h) was 92% (6 h) and the “HL” value (HEK-FAP cells) was 1477 ± 2013 min. It also gave a pKD (HEK-FAP cells) of 9.8 ± 0.7 and a kon (HEK-FAP cells) of 150000 M⁻¹ s⁻¹.
